{"source": "patent US8648203B2", "about": "(priority 2005, dated 2014)", "origin": "cited, not measured here", "tested_on": "benzimidazole and/or dicarboximide resistant strains of B. cinerea", "data": [{"smiles": "O=[N+]([O-])c1cc(C(F)(F)F)c(Cl)c([N+](=O)[O-])c1Nc1ncc(C(F)(F)F)cc1Cl", "note": "[fluazinam, 3-chloro-N-(3-chloro-5-trifluoromethyl-2-pyridyl)-α,α,α-trifluoro-2,6-dinitro-p-toluidine]", "values": [{"measurement": "activity against resistant strains of B. cinerea", "value": "good activity"}]}]}
